From patent publication US5140009A (Tap Pharmaceuticals, Inc., priority 1990, dated 1992) come the findings set out here.

Structures are written as SMILES. Square brackets hold non-standard residues; d marks the D form. Peptide text beside a SMILES is read from it. * marks the point of attachment. Propanoyl(3-indol-3-yl) = O=C(CCc1c[nH]c2ccccc12)*; Acetyl(1-adamantyl) = O=C(CC12CC3CC(CC(C3)C1)C2)*; Propanoyl(3-(4-F-phenyl)) = O=C(CCc1ccc(F)cc1)*; Propanoyl(3-(4-MeO-Ph)) = COc1ccc(CCC(=O)*)cc1; Hydrocinnamoyl(2,4-F2) = O=C(CCc1ccc(F)cc1F)*; Propanoyl(3-(4-Cl-Ph)) = O=C(CCc1ccc(Cl)cc1)*; X7 = CC1(C)CN(CC(=O)*)C(=O)C(c2ccccc2)=N1; Phenylacetyl(4-Cl) = O=C(Cc1ccc(Cl)cc1)*; Phenylacetyl(4-F) = O=C(Cc1ccc(F)cc1)*; 2Nal = N[C@@H](Cc1ccc2ccccc2c1)C(=O)O; Desaminotyrosyl = O=C(CCc1ccc(O)cc1)*; Cyclopentanecarbonyl = O=C(C1CCCC1)*; NMeY = CN[C@@H](Cc1ccc(O)cc1)C(=O)O; X13 = O=C(CCc1ccc(C(F)(F)F)cc1)*; d2Thi = N[C@H](Cc1cccs1)C(=O)O; X15 = O=C(Cc1ccc(O)cc1)*; X6 = O=C(CCc1ccccc1F)*

The assay concerns the target T1, LHRH receptors (Rattus norvegicus, UniProt P30969).
T1 construct: Pituitary membranes containing LHRH receptors are prepared in batches from quick-frozen rat pituitaries; tissue Hilltop Labs; host or cells: rat pituitary membranes
T1 sequence (P30969 1-327): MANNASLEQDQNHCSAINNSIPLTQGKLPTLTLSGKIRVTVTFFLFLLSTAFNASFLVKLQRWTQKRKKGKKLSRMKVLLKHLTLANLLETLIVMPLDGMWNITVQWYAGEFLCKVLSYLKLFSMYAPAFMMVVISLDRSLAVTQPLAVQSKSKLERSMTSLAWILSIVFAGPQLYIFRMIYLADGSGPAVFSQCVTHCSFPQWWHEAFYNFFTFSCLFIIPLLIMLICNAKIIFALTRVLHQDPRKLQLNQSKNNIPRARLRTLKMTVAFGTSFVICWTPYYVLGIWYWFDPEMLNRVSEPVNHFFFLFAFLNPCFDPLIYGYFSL
The assay is described as follows: Receptor Binding (radioligand receptor binding assay). The settings on record: table 3; rat pituitary membranes, radioiodinated [D-Leu^6 -des Gly^10 ]-LHRH ethyl amide 50 pM, 2 hours at 4° C.; read-out: Receptor Binding pkI (converted).

In the case of `CCNC(=O)[C@@H]1CCCN1C(=O)[C@H](CCCNC(=N)N)NC(=O)[C@H](CC(C)C)NC(=O)[C@@H](CCCNC(=N)N)NC(=O)[C@H](Cc1ccc(O)cc1)NC(=O)[C@H](CO)NC(=O)[C@H](Cc1c[nH]c2ccccc12)NC(=O)[C@H](Cc1ccccc1)NC(=O)C1CCCC1` [Compound 70, N-(Cyclopentylcarbonyl)-Phe-Trp-Ser-Tyr-D-Arg-Leu-Arg-Pro-NHEt] (Cyclopentanecarbonyl-FWSY[dR]LRP-NHEt), the Ki was 0.145 nM.

For `CCNC(=O)[C@@H]1CCCN1C(=O)[C@H](CCCNC(=N)N)NC(=O)[C@H](CC(C)C)NC(=O)[C@@H](Cc1c[nH]c2ccccc12)NC(=O)[C@H](CCCCN)NC(=O)[C@H](CO)NC(=O)[C@H](Cc1c[nH]c2ccccc12)NC(=O)[C@H](Cc1c[nH]cn1)NC(=O)CN1CC(C)(C)N=C(c2ccccc2)C1=O` [Compound 71, N-(5,6-Dihydro-5,5-dimethyl-2-oxo-3-phenyl-1-(2H)-pyrazineacetyl)-His-Trp-Ser-Lys-D-Trp-Leu-Arg-ProNHEt] (X7-HWSK[dW]LRP-NHEt), the Ki was 3.16 nM.

Turning to `CCNC(=O)[C@@H]1CCCN1C(=O)[C@H](CCCNC(=N)N)NC(=O)[C@H](CC(C)C)NC(=O)[C@@H](Cc1c[nH]c2ccccc12)NC(=O)[C@H](Cc1ccc(O)cc1)NC(=O)[C@H](CO)NC(=O)[C@H](Cc1c[nH]c2ccccc12)NC(=O)[C@H](Cc1ccccc1)NC(C)=O` [Compound 72, N-Acetyl-Phe-Trp-Ser-Tyr-D-Trp-Leu-Arg-ProNHEt] (Ac-FWSY[dW]LRP-NHEt), the Ki is 0.166 nM.

For `CCNC(=O)[C@@H]1CCCN1C(=O)[C@H](CCCNC(=N)N)NC(=O)[C@H](CC(C)C)NC(=O)[C@@H](Cc1c[nH]c2ccccc12)NC(=O)[C@H](Cc1ccc(O)cc1)NC(=O)[C@H](CO)NC(=O)Cc1ccc(O)cc1` [Compound 73, (4-9)[N-(3-(4-Hydroxyphenyl)acetyl) -Ser^4 -D-Trp^6 -Pro^9 NHEt]LHRH] (X15-SY[dW]LRP-NHEt), the Ki was 70.8 nM.

As to `CCNC(=O)[C@@H]1CCCN1C(=O)[C@H](CCCNC(=N)N)NC(=O)[C@H](CC(C)C)NC(=O)[C@@H](Cc1c[nH]c2ccccc12)NC(=O)[C@H](Cc1ccc(O)cc1)NC(=O)[C@H](CO)NC(=O)Cc1ccc(F)cc1` [Compound 74, (4-9)[N-(3-(4-Fluorophenyl)acetyl) -Ser^4 -D-Trp^6 -Pro^9 NHEt]LHRH] ({Phenylacetyl(4-F)}-SY[dW]LRP-NHEt), the Ki was 26.3 nM.

Regarding `CCNC(=O)[C@@H]1CCCN1C(=O)[C@H](CCCNC(=N)N)NC(=O)[C@H](CC(C)C)NC(=O)[C@@H](Cc1c[nH]c2ccccc12)NC(=O)[C@H](Cc1ccc(O)cc1)NC(=O)[C@H](CO)NC(=O)Cc1ccc(Cl)cc1` [Compound 75, (4-9)[N-(3-(4-Chlorophenyl)acetyl) -Ser^4 -D-Trp^6 -Pro^9 NHEt]LHRH] ({Phenylacetyl(4-Cl)}-SY[dW]LRP-NHEt), the Ki is 7.08 nM.

`CCNC(=O)[C@@H]1CCCN1C(=O)[C@H](CCCNC(=N)N)NC(=O)[C@H](CC(C)C)NC(=O)[C@@H](Cc1c[nH]c2ccccc12)NC(=O)[C@H](Cc1ccc(O)cc1)NC(=O)[C@H](CO)NC(=O)CCc1ccc(O)cc1` [Compound 76, (4-9)[N-(3-(4-Hydroxyphenyl)propionyl) -Ser^4 -D-Trp^6 -Pro^9 NHEt]LHRH] (Desaminotyrosyl-SY[dW]LRP-NHEt): the Ki is 43.7 nM.

As to `CCNC(=O)[C@@H]1CCCN1C(=O)[C@H](CCCNC(=N)N)NC(=O)[C@H](CC(C)C)NC(=O)[C@@H](Cc1c[nH]c2ccccc12)NC(=O)[C@H](Cc1ccc(O)cc1)NC(=O)[C@H](CO)NC(=O)CCc1ccc(F)cc1` [Compound 77, (4-9)[N-(3-(4-Fluorophenyl)propionyl) -Ser^4 -D-Trp^6 -Pro^9 NHEt]LHRH] ({Propanoyl(3-(4-F-phenyl))}-SY[dW]LRP-NHEt), the Ki was 3.98 nM.

`CCNC(=O)[C@@H]1CCCN1C(=O)[C@H](CCCNC(=N)N)NC(=O)[C@H](CC(C)C)NC(=O)[C@@H](Cc1c[nH]c2ccccc12)NC(=O)[C@H](Cc1ccc(O)cc1)NC(=O)[C@H](CO)NC(=O)CCc1ccc(OC)cc1` [Compound 78, (4-9)[N-(3-(4-Methoxyphenyl)propionyl) -Ser^4 -D-Trp^6 -Pro^9 NHEt]LHRH] ({Propanoyl(3-(4-MeO-Ph))}-SY[dW]LRP-NHEt): the Ki is 10.7 nM.

Turning to `CCNC(=O)[C@@H]1CCCN1C(=O)[C@H](CCCNC(=N)N)NC(=O)[C@H](CC(C)C)NC(=O)[C@@H](Cc1c[nH]c2ccccc12)NC(=O)[C@H](Cc1ccc(O)cc1)NC(=O)[C@H](CO)NC(=O)CCc1ccc(C(F)(F)F)cc1` [Compound 79, (4-9)[N-(3-(4-Trifluoromethylphenyl)propionyl)-Ser^4 -D-Trp^6 -Pro^9 NHEt]LHRH] (X13-SY[dW]LRP-NHEt), the Ki was 1.95 nM.

Consider `CCNC(=O)[C@@H]1CCCN1C(=O)[C@H](CCCNC(=N)N)NC(=O)[C@H](CC(C)C)NC(=O)[C@@H](Cc1cccs1)NC(=O)[C@H](Cc1ccc(O)cc1)NC(=O)[C@H](CO)NC(=O)CCc1c[nH]c2ccccc12` [Compound 80, (4-9)[N-(3-(3-Indole)propionyl) -Ser^4 -D-Thia^6 -Pro^9 NHEt]LHRH] ({Propanoyl(3-indol-3-yl)}-SY[d2Thi]LRP-NHEt), for which the Ki is 50.1 nM.

For the compound `CCNC(=O)[C@@H]1CCCN1C(=O)[C@H](CCCNC(=N)N)NC(=O)[C@H](CC(C)C)NC(=O)[C@@H](Cc1c[nH]c2ccccc12)NC(=O)[C@H](Cc1ccc(O)cc1)N(C)C(=O)[C@H](CO)NC(=O)CC12CC3CC(CC(C3)C1)C2` [Compound 81, N-[(1-Adamantyl)acetyl]-Ser-N-Me-Tyr-D-Trp-Leu-Arg-Pro -NHEt] ({Acetyl(1-adamantyl)}-S[NMeY][dW]LRP-NHEt), the Ki is 0.589 nM.

For the compound `CCNC(=O)[C@@H]1CCCN1C(=O)[C@H](CCCNC(=N)N)NC(=O)[C@H](CC(C)C)NC(=O)[C@@H](Cc1c[nH]c2ccccc12)NC(=O)[C@H](Cc1ccc(O)cc1)NC(=O)[C@H](CO)NC(=O)[C@H](Cc1ccc2ccccc2c1)NC(C)=O` [Compound 84, (3-9)[N-Ac-2-Nal^3 -D-Trp^6 -Pro^9 NHEt]LHRH] (Ac-[2Nal]SY[dW]LRP-NHEt), the Ki was 1.41 nM.

Regarding `CCNC(=O)[C@@H]1CCCN1C(=O)[C@H](CCCN=C(N)N)NC(=O)[C@H](CC(C)C)NC(=O)[C@@H](Cc1c[nH]c2ccccc12)NC(=O)[C@H](Cc1ccc(O)cc1)NC(=O)[C@H](CO)NC(=O)[C@@H](Cc1c[nH]c2ccccc12)NC(=O)CCc1ccc(Cl)cc1` [Compound 85, (3 9)[N-(3-(4-Chlorophenyl)propionyl)-D-Trp^3,6 -Pro^9 NHEt]LHRH] ({Propanoyl(3-(4-Cl-Ph))}-[dW]SY[dW]LRP-NHEt), the Ki was 0.0741 nM.

On to `CCNC(=O)[C@@H]1CCCN1C(=O)[C@H](CCCN=C(N)N)NC(=O)[C@H](CC(C)C)NC(=O)[C@@H](Cc1c[nH]c2ccccc12)NC(=O)[C@H](Cc1ccc(O)cc1)NC(=O)[C@H](CO)NC(=O)[C@@H](Cc1ccc(O)cc1)NC(=O)CCc1ccc(Cl)cc1` [Compound 86, (3-9)[N-(3-(4-Chlorophenyl)propionyl)-D -Tyr^3 -D-Trp^6 -Pro^9 NHEt]LHRH] ({Propanoyl(3-(4-Cl-Ph))}-[dY]SY[dW]LRP-NHEt), for which the Ki was 0.0174 nM.

With `CCNC(=O)[C@@H]1CCCN1C(=O)[C@H](CCCN=C(N)N)NC(=O)[C@H](CC(C)C)NC(=O)[C@@H](Cc1c[nH]c2ccccc12)NC(=O)[C@H](Cc1ccc(O)cc1)NC(=O)[C@H](CO)NC(=O)[C@H](Cc1ccc(O)cc1)NC(=O)CCc1ccc(Cl)cc1` [Compound 87, (3-9)[N-(3-(4-Chlorophenyl)propionyl) -Tyr^3 -D-Trp^6 -Pro^9 NHEt]LHRH] ({Propanoyl(3-(4-Cl-Ph))}-YSY[dW]LRP-NHEt), the Ki was 0.129 nM.

Turning to `CCNC(=O)[C@@H]1CCCN1C(=O)[C@H](CCCNC(=N)N)NC(=O)[C@H](CC(C)C)NC(=O)[C@@H](Cc1c[nH]c2ccccc12)NC(=O)[C@H](Cc1ccc(O)cc1)NC(=O)[C@H](CO)NC(=O)[C@H](Cc1c[nH]c2ccccc12)NC(=O)CCc1ccccc1F` [Compound 88, (3-9)[N-(3-(2-Fluorophenyl)propionyl) -Trp^3 -D-Trp^6 -Pro^9 NHEt]LHRH] (X6-WSY[dW]LRP-NHEt), the Ki was 0.0575 nM.

For the compound `CCNC(=O)[C@@H]1CCCN1C(=O)[C@H](CCCN=C(N)N)NC(=O)[C@H](CC(C)C)NC(=O)[C@@H](Cc1c[nH]c2ccccc12)NC(=O)[C@H](Cc1ccc(O)cc1)NC(=O)[C@H](CO)NC(=O)[C@@H](Cc1c[nH]c2ccccc12)NC(=O)CCc1ccc(F)cc1F` [Compound 90, (3-9)[N-(3-(2,4-Difluorophenyl)propionyl) -D-Trp^3,6 -Pro^9 NHEt]LHRH] ({Hydrocinnamoyl(2,4-F2)}-[dW]SY[dW]LRP-NHEt), the Ki is 0.0316 nM.

As for `CCNC(=O)[C@@H]1CCCN1C(=O)[C@H](CCCNC(=N)N)NC(=O)[C@H](CC(C)C)NC(=O)[C@@H](Cc1c[nH]c2ccccc12)NC(=O)[C@H](Cc1ccc(O)cc1)NC(=O)[C@H](CO)NC(=O)[C@@H](Cc1c[nH]c2ccccc12)NC(=O)CCc1ccc(F)cc1` [Compound 91, (3-9)[N-(3-(4-Fluorophenyl)propionyl) -D-Trp^3,6 Pro^9 NHEt]LHRH] ({Propanoyl(3-(4-F-phenyl))}-[dW]SY[dW]LRP-NHEt), the Ki is 0.0288 nM.

On to `CCNC(=O)[C@@H]1CCCN1C(=O)[C@H](CCCN=C(N)N)NC(=O)[C@H](CC(C)C)NC(=O)[C@@H](Cc1ccc(O)cc1)NC(=O)[C@H](Cc1ccc(O)cc1)NC(=O)[C@H](CO)NC(=O)[C@H](Cc1c[nH]c2ccccc12)NC(=O)CCc1ccc(F)cc1` [Compound 92, (3-9)[N-(3-(4-Fluorophenyl)propionyl) -Trp^3 -D-Tyr^6 -Pro^9 NHEt]LHRH] ({Propanoyl(3-(4-F-phenyl))}-WSY[dY]LRP-NHEt), for which the Ki was 0.0316 nM.
